According to patent US6040300A, “Method of preventing colon cancer with vitamin D3 analogues” (Arch Development Corporation, priority 1995, dated 2000):
“Also recorded” adds a separate entry of the source.

Key:
[1] = Serum 25(OH)D3 levels (radioimmunoassay); assay type: in vivo, Male albino Fisher-344 rats; conditions: for Serum Levels 25(OH)D3: mean ± S.E.M., n=6
Excerpt: (§1) Male albino Fisher-344 rats, initially weighing ~90-100 g, were used in these studies. On arrival, the animals were quarantined for 1 wk and then randomly divided into the following six test groups: groups 1 and 2, standard vitamin D-sufficient diet; groups 3 and 4, standard diet supplemented with RO24-5531 (2.50 nmol/kg of feed); and groups 5 and 6, standard vitamin D-sufficient diet. […] Next, the rats in groups 2,4 and 6 were given subcutaneous injections of azoxymethane (AOM, Sigma Chemical Co., St. Louis, Mo.), 15 mg/kg body wt once a wk for 2 wks, while the rats in groups 1,3 and 5 received AOM-vehicle (saline).
(§2) Groups 1 and 2 were then maintained on the standard diet for an additional […]. Groups 3 and 4 were maintained on the RO24-5531 supplemented diets for the initial five wks and then switched to the standard diet without RO24-5531 for an additional 29 wks (initiation arm), whereas groups 5 and 6 were maintained on the standard diet without supplemental RO24-5531 for the initial five wks and then switched to the RO24-5531 supplemented diet for an additional 29 wks (post-initiation arm).
(§3) All rats were sacrificed in the non-fasting state after 34 wks on these protocols between 9 a.m. and 11 a.m. and sera obtained for measurement of calcium, phosphate, 25(OH)D3 and 1α,25(OH)2 D3 levels. The rats' colons were removed, opened, washed with normal saline and examined macroscopically for the presence of tumors. Resected tumors were weighed, and were fixed in 10% buffered formalin for microscopic examination. After formalin fixation, tissue specimens were paraffin-embedded, sectioned, and stained with hematoxylin and eosin as described previously (Sitrin et al., 1991), for light microscopic examination. All specimens were evaluated by a pathologist who was unaware of the dietary or AOM treatment history. Macroscopic and microscopic lesions were classified as either benign (adenoma) or malignant (adenocarcinoma).
(§4) Serum calcium and phosphorus were measured by standard colorimetric methods (Kessler and Wolfman, Clin. Chem. 10:686-703, 1964). Serum 25(OH)D3 levels were measured by radioimmunoassay, using a kit and procedure supplied by Incstar (Stillwater, Minn.). Serum 1α,25(OH)2 D3 levels were assayed by a non-equilibrium competitive protein-binding assay based on a calf thymus receptor, using a kit and procedure supplied by Incstar, as previously described (Sitrin et al., 1991).
(§5) Results are expressed as means ±SE of n determinations. Data were analyzed by Fisher's exact test (two-tailed) or analysis of variance (ANOVA) as appropriate (Snedecor and Cochran, Statistical Methods, 1980). Values of p <0.05 were considered statistically significant.

[2] = Serum phosphorus (standard colorimetric method); assay type: in vivo, Male albino Fisher-344 rats; conditions: for Serum Levels P: mean ± S.E.M.
Excerpt: as §1, §2, §3, §4, §5

[3] = Serum 1α,25(OH)2 D3 levels (competitive protein-binding assay, calf thymus receptor); assay type: in vivo, Male albino Fisher-344 rats; conditions: all test groups
Excerpt: as §1, with “(saline). […]” for “(saline).”
All rats were sacrificed in the non-fasting state after 34 wks on these protocols between 9 a.m. and 11 a.m. and sera obtained for measurement of calcium, phosphate, 25(OH)D3 and 1α,25(OH)2 D3 levels. […] All specimens were evaluated by a pathologist who was unaware of the dietary or AOM treatment history. […]
Serum calcium and phosphorus were measured by standard colorimetric methods (Kessler and Wolfman, Clin. Chem. 10:686-703, 1964). Serum 25(OH)D3 levels were measured by radioimmunoassay, using a kit and procedure supplied by Incstar (Stillwater, Minn.). […]
Results are expressed as means ±SE of n determinations. Data were analyzed by Fisher's exact test (two-tailed) or analysis of variance (ANOVA) as appropriate (Snedecor and Cochran, Statistical Methods, 1980). […]

[4] = system: NMU-induced breast cancers; conditions: cited from earlier work
[5] = breast tumor study; cited from earlier work
[6] = system: AOM-induced colonic tumors; test: AOM-induced colonic tumor formation with dietary RO24-5531; assay type: in vivo, Male albino Fisher-344 rats; conditions: for inhibition of development of colonic tumors / colon cancer incidence: AOM model, dietary supplementation
Experimental: FIG. 2. Study Protocol: Rats (12 each, in groups 1,3 and 5; 20 each, in groups 2,4 and 6) were fed either standard diet without RO24-5531 (open bars), or RO24-5531 supplemented diets (shaded bars) for the initial five weeks of the study. During this period rats were given two weekly subcutaneous injections of either AOM (15 mg/kg body wt/wk) (groups 2,4 or 6), or AOM-vehicle (saline) (groups 1,3, or 5) at the end of weeks 2 and 3 (arrows). At the end of five weeks, rats in groups 1-2 were continued on the standard diet without RO24-5531; groups 3-4 were switched to standard diet without RO24-5531; and groups 5-6 were switched to the RO24-5531 supplemented diet for another 29 weeks.
RO24-5531 was provided by Hoffmann LaRoche Inc. (Nutley, NJ; EP 580968). All diets were obtained from ICN Biochemicals (Cleveland, Ohio). Prior to pelleting, RO24-5531 or vehicle (0.1% ethanol) were mixed with the standard vitamin D-sufficient diet by ICN Biochemicals. This diet has been described in detail (Sitrin et al., 1991) and contained a normal content of calcium and phosphorus, 0.87% and 0.60%, respectively, with 2.2 IU of vitamin D3 /g of feed.
as §1, §2, §3, §5

[7] = Serum calcium (standard colorimetric method); assay type: in vivo, Male albino Fisher-344 rats; conditions: for hypercalcemia or alterations in serum levels: dietary supplementation, serum phosphorus, 25(OH)D3, 1,25(OH)2D3 also named; for Serum Levels Cas+: mean ± S.E.M.
Excerpt: as §1, §2, §3, §4, §5

[8] = Body weight / growth and tolerability of the animals; assay type: in vivo; conditions: for Final Wt.: mean ± S.E.M.
Excerpt: as §1, §2, §3, §5

[9] = group 4: RO24-5531/SD (initiation arm), AOM
[10] = group 6: SD/RO24-5531 (post-initiation arm), AOM
[11] = group 3: RO24-5531/SD, no AOM, n=10
[12] = listed as 1α,25-dihydroxy-16-ene-23-yne-26,27-hexafluorocholecalciferol
[13] = group 3: RO24-5531/SD, no AOM, 12 animals
[14] = group 4: RO24-5531/SD (initiation arm), AOM, 20 animals
[15] = group 4: RO24-5531/SD (initiation arm), AOM, 20 animals, p < 0.05 vs group 2
[16] = group 5: SD/RO24-5531, no AOM, 12 animals
[17] = group 6: SD/RO24-5531 (post-initiation arm), AOM, 20 animals

SMILES: C=C1/C(=C\C=C2/CCC[C@]3(C)C([C@H](C)CC#CC(O)(C(F)(F)F)C(F)(F)F)=CC[C@@H]23)C[C@@H](O)C[C@@H]1O [RO24-5531, 26,26,26,27,27,27-hexafluoro-1α,25-dihydroxy-16-ene-23-yne-cholecalciferol]
- Serum Levels 25(OH)D3 ([1]; group 3: RO24-5531/SD, no AOM): 31 ± 2 ng/mL
- Serum Levels 25(OH)D3 [1, 9]: 29 ± 2 ng/mL
- Serum Levels 25(OH)D3 ([1]; group 5: SD/RO24-5531, no AOM): 33 ± 4 ng/mL
- Serum Levels 25(OH)D3 [1, 10]: 36 ± 5 ng/mL
- effect on serum levels of 25(OH)D3 ([1]; groups 4 and 6): significantly altered the serum levels of calcium, phosphorus or 25(OH)D3
- Serum Levels P [2, 11]: 10.2 ± 0.7 mg/dL
- Serum Levels P ([2]; group 4: RO24-5531/SD (initiation arm), AOM, n=5): 9.9 ± 0.8 mg/dL
- Serum Levels P ([2]; group 5: SD/RO24-5531, no AOM, n=6): 9.2 ± 0.3 mg/dL
- Serum Levels P ([2]; group 6: SD/RO24-5531 (post-initiation arm), AOM, n=11): 9.0 ± 0.8 mg/dL
- effect on serum levels of phosphorus ([2]; groups 4 and 6): significantly altered the serum levels of calcium, phosphorus or 25(OH)D3
- effect on serum 1α,25(OH)2 D3 levels [3]: no differences were observed
- protection against NMU-induced breast cancers ([4]; fed after administration of carcinogen): protected against the development of NMU-induced breast cancers
- breast tumor incidence ([4]; in vivo): lessened tumor incidence
- breast tumor latency ([4]; in vivo): extended breast tumor latency
- breast tumor number ([4]; in vivo): lessened tumor incidence as well as tumor number
- serum Ca2+ levels [5]: without causing elevated levels of serum Ca^2+
- inhibition of development of colonic tumors / colon cancer incidence ([6]; listed as 1α, 25-Dihydroxy-16-ene-23-yne-26, 27-hexafluorocholecalciferol): reduced the incidence of colon cancer in rats
- inhibition of development of colonic tumors / colon cancer incidence [6, 12]: can inhibit the development of colonic tumors in mammals; also recorded: can inhibit the development of colonic tumors in the AOM model
- development of tumors ([6]; AOM-vehicle, RO24-5531 supplemented diets (groups 3, 5)): None of the control animals given injections of the AOM-vehicle and fed either the standard or RO24-5531 supplemented diets developed tumors
- Tumors/Tumor Bearing rat ([6]; group 3: RO24-5531/SD, no AOM): 0
- No. of Tumor-Bearing Rats [6, 13]: 0
- No. of Tumors, Benign No. [6, 13]: 0
- No. of Tumors, Malignant No. [6, 13]: 0
- No. of Tumors, Total No. [6, 13]: 0
- incidence of colonic tumors vs group 2 ([6]; group 4, initiation arm): significant decreases in the incidence of colonic tumors
- tumor type ([6]; group 4, initiation arm): all of the colonic tumors in group 4 (initiation arm) were found to be benign, i.e., adenomas
- Tumor Wt. [6, 9]: 102 ± 28 mg
- Tumors/Tumor Bearing rat [6, 9]: 1.0
- No. of Tumors, Benign No. [6, 14]: 3
- No. of Tumors, Malignant No. [6, 14]: 0
- No. of Tumor-Bearing Rats [6, 15]: 3
- No. of Tumors, Total No. [6, 15]: 3
- Tumor-Bearing Rats (% of Incidence) ([6]; group 4: RO24-5531/SD (initiation arm), AOM, p < 0.05 vs group 2 (50%)): 15%
- Tumors/Tumor Bearing rat ([6]; group 5: SD/RO24-5531, no AOM): 0
- No. of Tumor-Bearing Rats [6, 16]: 0
- No. of Tumors, Benign No. [6, 16]: 0
- No. of Tumors, Malignant No. [6, 16]: 0
- No. of Tumors, Total No. [6, 16]: 0
- tumor type ([6]; group 6, post-initiation arm): all of the colonic tumors were found to be adenomas
- number of tumors vs AOM alone animals ([6]; group 6, post-initiation arm, p >0.05): a trend for a decrease in the number of tumors; also recorded: did not reach statistical significance
- Tumor Wt. [6, 10]: 109 mg
- Tumors/Tumor Bearing rat [6, 10]: 1.0
- No. of Tumor-Bearing Rats [6, 17]: 6
- No. of Tumors, Benign No. [6, 17]: 6
- No. of Tumors, Malignant No. [6, 17]: 0
- No. of Tumors, Total No. [6, 17]: 6
- Tumor-Bearing Rats (% of Incidence) ([6]; group 6: SD/RO24-5531 (post-initiation arm), AOM, group 2: 50%): 30%
- AOM-induced adenocarcinomas ([6]; post-initiation arm, like its initiation arm counterpart): complete absence of AOM-induced adenocarcinomas
- hypercalcemia or alterations in serum levels [7]: did not result in hypercalcemia
- hypercalcemia or alterations in serum levels [7, 12]: does not induce hypercalcemia or alterations in the serum levels of phosphorus, 25(OH)D3, or 1,25(OH)2D3; also recorded: did not induce hypercalcemia or alterations in the serum levels of phosphorus, 25(OH)D3 or 1,25(OH)2D3
- Serum Levels Cas+ [7, 11]: 11.3 ± 0.1 mg/dL
- Serum Levels Cas+ ([7]; group 4: RO24-5531/SD (initiation arm), AOM, n=6): 10.1 ± 0.4 mg/dL
- Serum Levels Cas+ ([7]; group 5: SD/RO24-5531, no AOM, n=14): 10.3 ± 0.4 mg/dL
- Serum Levels Cas+ ([7]; group 6: SD/RO24-5531 (post-initiation arm), AOM, n=8): 10.1 ± 0.5 mg/dL
- effect on serum levels of calcium ([7]; groups 4 (initiation arm) and 6 (post-initiation arm)): significantly altered the serum levels of calcium, phosphorus or 25(OH)D3
- influence on growth of the animals ([8]; RO24-5531 supplemental dietary regimens, all groups): neither the RO24-5531 supplemental dietary regimens, nor the administration of carcinogen influenced the growth of the animals
- tolerability ([8]; dietary supplementation): well-tolerated by the animals
- Final Wt. ([8]; group 3: RO24-5531 2.50 nmol/kg of feed for initial five wks, then SD, no AOM): 470 ± 20 g
- Final Wt. ([8]; group 4: RO24-5531/SD (initiation arm), AOM treated): 465 ± 16 g
- Final Wt. ([8]; group 5: SD/RO24-5531 (supplement for last 29 wks), no AOM): 511 ± 30 g
- Final Wt. ([8]; group 6: SD/RO24-5531 (post-initiation arm), AOM treated): 499 ± 28 g
